Experimental data reported in patent US9540400B2, “Compounds as diacylglycerol acyltransferase inhibitors” (GlaxoSmithKline Intellectual Property (No. 2) Limited, priority 2011, dated 2017).

target: T1, Human DGAT1 (Homo sapiens, UniProt O75907); test: hDGAT1 fluorescence (CPM) assay, inhibition of CoA product formation; type: biochemical; settings: human DGAT1 microsomes from Sf9 cells
T1 construct: made in house; host or cells: Sf9 insect cells (baculovirus); microsomes
T1 sequence (O75907 1-488): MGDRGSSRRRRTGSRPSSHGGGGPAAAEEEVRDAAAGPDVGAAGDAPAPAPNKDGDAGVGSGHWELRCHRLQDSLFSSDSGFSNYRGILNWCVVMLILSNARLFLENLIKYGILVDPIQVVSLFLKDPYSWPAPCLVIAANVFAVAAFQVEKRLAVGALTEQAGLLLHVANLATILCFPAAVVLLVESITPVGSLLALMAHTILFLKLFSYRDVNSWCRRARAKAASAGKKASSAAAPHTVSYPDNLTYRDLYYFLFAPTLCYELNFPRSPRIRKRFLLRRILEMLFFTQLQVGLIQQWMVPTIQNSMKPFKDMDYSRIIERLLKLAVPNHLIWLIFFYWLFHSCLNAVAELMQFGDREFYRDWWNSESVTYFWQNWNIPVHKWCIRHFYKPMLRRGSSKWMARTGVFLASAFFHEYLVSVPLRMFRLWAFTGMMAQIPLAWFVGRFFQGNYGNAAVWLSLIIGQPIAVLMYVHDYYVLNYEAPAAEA
Protocol: (§1) Human DGAT1 was expressed in Sf9 insect cells using a baculovirus expression system. Microsomes were prepared and used as enzyme for in vitro inhibition testing in either of two formats measuring production of coenzyme A or tridecanoylglycerol product, respectively. All steps were performed at 21-23° C. All data for DGAT1 inhibition by test compounds were collected under conditions where product formation was linear with reaction time.
For inhibition of CoA product formation, test compounds were prepared in 100% DMSO, diluted 100-fold into assay buffer, and 10 uL added to 96-well half-area plates (Greiner 675076). An equal volume (10 uL) of 3× enzyme in buffer was added and the components incubated for 30 minutes pre-reaction incubation to allow enzyme and test compounds to attain binding equilibrium. […] Some assays were performed with inclusion of didecanoylglycerol in the pre-reaction incubation of test compound and enzyme. DGAT reactions (30 uL) were initiated upon addition of 10 uL of 3× substrate solution. Final reaction conditions consisted of 20 mM HEPES pH 7.5, 2 mM MgCl2, 1 mM CHAPS, 50 uM didecanoylglycerol, 3 uM decanoyl-CoA, 1 ug/mL microsomal protein, and 1% DMSO. Following a 60 minute reaction incubation, reactions were stopped and CoA product derivatized with 30 uL of buffer containing 10 uM {4-[4-(4-amino-7,7-dimethyl-7H-pyrimido[4,5-b][1,4]oxazin-6-yl)phenyl]cyclohexyl}acetic acid and 50 uM 7-diethylamino-3-(4′-maleimidylphenyl)-4-methylcoumarin (CPM). Fluorescence was read using Envision reader at Ex 405 nm/Em 480 nm about 30 minutes after addition of final solution. Inhibition was normalized to controls containing DMSO or 10 uM {4-[4-(4-amino-7,7-dimethyl-7H-pyrimido[4,5-b][1,4]oxazin-6-yl)phenyl]cyclohexyl}acetic acid. IC50s were fitted using GraphPad Prism to a sigmoidal dose response.

Question: For `CCCn1ccc2cc(N3CCOc4ncnc(N)c4C3=O)ccc21` [Example 12, 4-Amino-6-(1-propyl-1H-indol-5-yl)-7,8-dihydropyrimido[5,4-f][1,4]oxazepin-5(6H)-one], which IC50 is on record?
Answer: 16.3 nM

Question: `Nc1ncnc2c1C(=O)N(c1ccc3c(ccn3-c3cnccn3)c1)CCO2` [Example 87, 4-amino-6-[1-(pyrazin-2-yl)-1H-indol-5-yl]-5H,6H,7H,8H-pyrimido[5,4-f][1,4]oxazepin-5-one] was tested. Which IC50 did it give?
Answer: 55.1 nM

Question: `Nc1ncnc2c1C(=O)N(c1cnc3c(ccn3-c3cccc(Cl)c3)c1)CCO2` [Example 68, 4-amino-6-[1-(3-chlorophenyl)-1H-pyrrolo[2,3-b]pyridin-5-yl]-5H,6H,7H,8H-pyrimido[5,4-f][1,4]oxazepin-5-one] was tested. Which IC50 did it give?
Answer: 2.8 nM

Question: How did the IC50 turn out when `CCCn1[nH]c(=O)c2cc(N3CCOc4ncnc(N)c4C3=O)ccc21` [Example 11, 4-Amino-6-(3-oxo-1-propyl-2,3-dihydro-1H-indazol-5-yl)-7,8-dihydropyrimido[5,4-f][1,4]oxazepin-5(6H)-one] was run?
Answer: 6.3 nM

Question: How did the IC50 turn out when `CC(C)c1cn(-c2ccccc2)c2ccc(N3CCOc4ncnc(N)c4C3=O)cc12` [Example 94, 4-Amino-6-(3-isopropyl-1-phenyl-1H-indol-5-yl)-7,8-dihydropyrimido[5,4-f][1,4]oxazepin-5(6H)-one] was run?
Answer: 873 nM

Question: With `CN1CCc2cc(N3CCOc4ncnc(N)c4C3=O)ccc2C1=O` [Example 6, 6-{4-amino-5-oxo-5H,6H,7H,8H-pyrimido[5,4-f][1,4]oxazepin-6-yl}-2-methyl-1,2,3,4-tetrahydroisoquinolin-1-one] as the compound, how does the IC50 read?
Answer: 85.8 nM

Question: Which IC50 does the source give for `Nc1ncnc2c1C(=O)N(c1cnc3c(ccn3CCO)c1)CCO2` [Example 59, 4-amino-6-[1-(2-hydroxyethyl)-1H-pyrrolo[2,3-b]pyridin-5-yl]-5H,6H,7H,8H-pyrimido[5,4-f][1,4]oxazepin-5-one] here?
Answer: 49.5 nM

Question: How did the IC50 turn out when `Nc1ncnc2c1C(=O)N(c1ccc3c(ccn3-c3ccc(C(F)(F)F)cc3)c1)CCO2` [Example 78, 4-amino-6-{1-[4-(trifluoromethyl)phenyl]-1H-indol-5-yl}-5H,6H,7H,8H-pyrimido[5,4-f][1,4]oxazepin-5-one] was run?
Answer: 7.3 nM

Question: For `Nc1ncnc2c1C(=O)N(c1cnc3c(ccn3C3CC3)c1)CCO2` [Example 34, 4-Amino-6-(1-cyclopropyl-1H-pyrrolo[2,3-b]pyridin-5-yl)-7,8-dihydropyrimido[5,4-f][1,4]oxazepin-5(6H)-one], which IC50 is on record?
Answer: 25.7 nM

Question: Which IC50 does the source give for `C=CCn1c2ccc(N3CCOc4ncnc(N)c4C3=O)cc2c(=O)n1Cc1ccccc1` [Example 10, 6-(1-Allyl-2-benzyl-3-oxo-2,3-dihydro-1H-indazol-5-yl)-4-amino-7,8-dihydropyrimido[5,4-f][1,4]oxazepin-5(6H)-one] here?
Answer: 42 nM

Question: With `CCCn1c(-c2ccccc2)cc2cc(N3CCOc4ncnc(N)c4C3=O)ccc21` [Example 95, 4-Amino-6-(2-phenyl-1-propyl-1H-indol-5-yl)-7,8-dihydropyrimido[5,4-f][1,4]oxazepin-5(6H)-one] as the compound, how does the IC50 read?
Answer: 10.1 nM

Question: `Nc1ncnc2c1C(=O)N(c1ccc3c(ccn3-c3ccc(C(F)(F)F)nc3)c1)CCO2` [Example 83, 4-Amino-6-(1-(6-(trifluoromethyl)pyridin-3-yl)-1H-indol-5-yl)-7,8-dihydropyrimido[5,4-f][1,4]oxazepin-5(6H)-one] was tested. Which IC50 did it give?
Answer: 40 nM

Question: For `Nc1ncnc2c1C(=O)N(c1cnc3c(ccn3-c3ccc(C(F)(F)F)cc3)c1)CCO2` [Example 66, 4-Amino-6-(1-(4-(trifluoromethyl)phenyl)-1H-pyrrolo[2,3-b]pyridin-5-yl)-7,8-dihydropyrimido[5,4-f][1,4]oxazepin-5(6H)-one], which IC50 is on record?
Answer: 42.5 nM

Question: How did the IC50 turn out when `Nc1ncnc2c1C(=O)N(c1ccc3c(c1)CCC(=O)N3CC(=O)O)CCO2` [Example 3, 2-(6-{4-amino-5-oxo-5H,6H,7H,8H-pyrimido[5,4-f][1,4]oxazepin-6-yl}-2-oxo-1,2,3,4-tetrahydroquinolin-1-yl)acetic acid] was run?
Answer: 372 nM

Question: How did the IC50 turn out when `Nc1ncnc2c1C(=O)N(c1ccc3c(ccn3-c3ccccc3F)c1)CCO2` [Example 76, 4-amino-6-[1-(2-fluorophenyl)-1H-indol-5-yl]-5H,6H,7H,8H-pyrimido[5,4-f][1,4]oxazepin-5-one] was run?
Answer: 2.5 nM

Question: How did the IC50 turn out when `Nc1ncnc2c1C(=O)N(c1ccc3c(ccn3-c3nccs3)c1)CCO2` [Example 82, 4-Amino-6-(1-(thiazol-2-yl)-1H-indol-5-yl)-7,8-dihydropyrimido[5,4-f][1,4]oxazepin-5(6H)-one] was run?
Answer: 20.5 nM

target: T1, Human DGAT1; test: hDGAT1 lipid extraction (LE) assay, inhibition of triacylglycerol product formation; type: biochemical; settings: human DGAT1 microsomes from Sf9 cells; radiolabelled tridecanoylglycerol extraction
Protocol: as §1
For inhibition of triacylglycerol product formation, 11 uL reactions were run in white Polyplate-384 (PerkinElmer6007300) starting with a 30 minute pre-reaction incubation of 5 uL of 2.2× enzyme and 1 uL of 100% DMSO containing test compound or control compound, {4-[4-(4-amino-7,7-dimethyl-7H-pyrimido[4,5-b][1,4]oxazin-6-yl)phenyl]cyclohexyl}acetic acid. Some assays were performed with inclusion of didecanoylglycerol in the pre-reaction incubation of test compounds and enzyme. Reactions were initiated after 30 minute pre-reaction incubation via addition of 5 uL of 2.2× substrate. Final reaction conditions consisted of 50 mM HEPES pH 7.5, 2 mM MgCl2, 1 mM CHAPS, 25 uM didecanoylglycerol, 0.5 uM decanoyl-CoA, 0.3 nCi/uL [^14C]-decanoyl-CoA or 0.5 nCi/uL [^3H]-decanoyl-CoA, 0.05-4 ug/mL microsomal protein, and 1% DMSO. Following 60 minute reaction incubation, reactions were stopped with 40 uL of 45% isopropanol and 50 mM sodium carbonate in water and mixed. Extraction of tridecanoylglycerol product was accomplished via addition of 30 uL Microscint-E (Perkin Elmer) and 2 hours of incubation (sealed). Plates were read on a Microbeta Microplate reader. Inhibition was normalized to controls containing DMSO or 10 uM {4-[4-(4-amino-7,7-dimethyl-7H-pyrimido[4,5-b][1,4]oxazin-6-yl)phenyl]cyclohexyl}acetic acid. IC50s were fitted using GraphPad Prism to a sigmoidal dose response.

Question: For `CCCn1cc(C(C)(OC)C(F)(F)F)c2cc(N3CCOc4ncnc(N)c4C3=O)ccc21` (centres unmarked) [Example 64, 4-amino-6-[1-propyl-3-(1,1,1-trifluoro-2-methoxypropan-2-yl)-1H-indol-5-yl]-5H,6H,7H,8H-pyrimido[5,4-f][1,4]oxazepin-5-one], which IC50 is on record?
Answer: 8.8 nM

Question: For `CCCn1cc(C(=O)C(F)(F)F)c2cc(N3CCOc4ncnc(N)c4C3=O)ccc21` [Example 63, 4-Amino-6-(1-propyl-3-(2,2,2-trifluoroacetyl)-1H-indol-5-yl)-7,8-dihydropyrimido[5,4-f][1,4]oxazepin-5(6H)-one], which IC50 is on record?
Answer: 2.3 nM

Question: Which IC50 does the source give for `Nc1ncnc2c1C(=O)N(c1ccc3ncn(Cc4ccccc4)c(=O)c3c1)CCO2` [Example 97, 4-Amino-6-(3-benzyl-4-oxo-3,4-dihydroquinazolin-6-yl)-7,8-dihydropyrimido[5,4-f][1,4]oxazepin-5(6H)-one] here?
Answer: 201 nM

Question: For `Nc1ncnc2c1C(=O)N(c1ccc3c(ccn3-c3cccc(C(F)(F)F)c3)c1)CCO2` [Example 80, 4-amino-6-{1-[3-(trifluoromethyl)phenyl]-1H-indol-5-yl}-5H,6H,7H,8H-pyrimido[5,4-f][1,4]oxazepin-5-one], which IC50 is on record?
Answer: 3.6 nM

Question: How did the IC50 turn out when `Nc1ncnc2c1C(=O)N(c1cnc3c(ccn3CC(F)F)c1)CCO2` [Example 33, 4-Amino-6-(1-(2,2-difluoroethyl)-1H-pyrrolo[2,3-b]pyridin-5-yl)-7,8-dihydropyrimido[5,4-f][1,4]oxazepin-5(6H)-one] was run?
Answer: 23.3 nM

Question: For `Nc1ncnc2c1C(=O)N(c1cnc3c(ccn3-c3ccccc3)c1)CCO2` [Example 72, 4-amino-6-{1-phenyl-1H-pyrrolo[2,3-b]pyridin-5-yl}-5H,6H,7H,8H-pyrimido[5,4-f][1,4]oxazepin-5-one], which IC50 is on record?
Answer: 9.3 nM

Question: `Nc1ncnc2c1C(=O)N(c1ccc3c(ccn3-c3ccccc3)c1)CCO2` [Example 65, 4-Amino-6-(1-phenyl-1H-indol-5-yl)-7,8-dihydropyrimido[5,4-f][1,4]oxazepin-5(6H)-one] was tested. Which IC50 did it give?
Answer: 3.9 nM

Question: How did the IC50 turn out when `Nc1ncnc2c1C(=O)N(c1ccc3nc[nH]c(=O)c3c1)CCO2` [Example 98, 4-Amino-6-(4-oxo-3,4-dihydroquinazolin-6-yl)-7,8-dihydropyrimido[5,4-f][1,4]oxazepin-5(6H)-one] was run?
Answer: 623 nM

Question: For `Nc1ncnc2c1C(=O)N(c1ccc3c(ccn3-c3ccc(F)c(F)c3)c1)CCO2` [Example 74, 4-amino-6-[1-(3,4-difluorophenyl)-1H-indol-5-yl]-5H,6H,7H,8H-pyrimido[5,4-f][1,4]oxazepin-5-one], which IC50 is on record?
Answer: 4.5 nM

Question: “4-amino-6-(6-fluoro-1-phenyl-1H-indol-5-yl)-5H,6H,7H,8H-pyrimido[5,4-f][1,4]oxazepin-5-one [Example 96]” was tested. Which IC50 did it give?
Answer: 7.3 nM
